Like-named read-outs stand apart in the source and are kept apart here.
Experiments:
Assay in all cases: cells
Design in all cases: Viability of PDAC cell lines, ATPlite luminescence, 11-dose single-agent curve fit
[1] = system: PaTu-8988-T; settings: 72 h
Protocol: (§1) Afterward, small amounts were transferred to 384-well intermediate plates (Greiner Bio-One GmbH, Germany). […] For drug combination screening, 1000 to 5000 cells were seeded into 384-well plates (CulturPlate™, Perkin Elmer, MA, USA) using a Multidrop™ Combi Reagent Dispenser (Thermo Scientific, MA, USA) in 50 µl medium per well 24 h prior to drug treatment (seeding densities see Appendix Table S1). […] The final DMSO concentration in each well was 0.2%. […] Eight wells per plate without library drug served as negative controls, and sixteen wells per plate containing 5 µM Staurosporine served as positive controls. […] Next, we analyzed the drug sensitivity of immortalized duct cell line HPDE to detect effects unrelated to pancreatic cancer.

[2] = system: PSN-1
Protocol: as §1

[3] = system: BxPC-3
Protocol: as §1

[4] = system: HuP-T4
Protocol: as §1

[5] = system: MiaPaCa-2
Protocol: as §1

[6] = system: Dan-G; settings: 72 h
Protocol: as §1

[7] = system: AsPC-1
Protocol: as §1

[8] = system: Colo-357
Protocol: as §1

[9] = system: Suit2-07; settings: 72 h
Protocol: as §1

[10] = system: HPDE; settings: 72 h
Protocol: as §1

[11] = system: FAMPAC; settings: 72 h
Protocol: as §1

[12] = system: Capan-1
Protocol: as §1

[13] = system: PANC-1
Protocol: as §1

[14] = Homo sapiens, PaTu 8988t, read-out: EC50 [nM]
[15] = Homo sapiens, PSN1, 72 h, read-out: EC50 [nM]
[16] = Homo sapiens, BXPC-3, 72 h, read-out: EC50 [nM]
[17] = Homo sapiens, HuP-T4, 72 h, read-out: EC50 [nM]
[18] = Homo sapiens, MIA PaCa-2, 72 h, read-out: EC50 [nM]
[19] = Homo sapiens, ASPC1, 72 h, read-out: EC50 [nM]
[20] = Homo sapiens, COLO357, 72 h, read-out: EC50 [nM]
[21] = Homo sapiens, CAPAN-1, 72 h, read-out: EC50 [nM]
[22] = Homo sapiens, PANC-1, 72 h, read-out: EC50 [nM]

| EC50 [3, 16] | EC50 [5, 18] | EC50 [7, 19] | EC50 [8, 20] | EC50 [13, 22] | SMILES | EC50 [1, 14] | EC50 [2, 15] | EC50 [4, 17] | EC50 ([6]; read-out: EC50 [nM]) | EC50 ([9]; read-out: EC50 [nM]) | EC50 ([10]; HPDE, read-out: EC50 [nM]) | EC50 ([11]; read-out: EC50 [nM]) | EC50 [12, 21] | other results |
| --- | --- | --- | --- | --- | --- | --- | --- | --- | --- | --- | --- | --- | --- | --- |
| 0.01 nM | 2740 nM | 596 nM | 5.08 nM | 20.4 nM | CNC(=O)c1c(C)oc2cc(Oc3ncnc4cc(OC)c(OC)cc34)ccc12 [Fruquintinib] | 1810 nM | 5.57 nM | 653 nM | 1.05 nM | 0.05 nM | 552 nM | 1660 nM | 32.9 nM |  |
| 5.83 nM | > 10000 nM | 3330 nM | 317 nM | 66.8 nM | Cc1cc(C)c(/C=C2\C(=O)Nc3ccccc32)[nH]1 [Semaxanib] | 815 nM | 127 nM | 42.4 nM | 169 nM | 2320 nM | > 10000 nM | 43.5 nM | 5010 nM |  |
| 536 nM | 449 nM | 361 nM | 26.1 nM | 95.7 nM | Cc1c(F)cc(C(=O)NC2CC2)cc1-c1ccc(C(=O)NCC(C)(C)C)cn1 [Losmapimod] | 1180 nM | 130 nM | 218 nM | 363 nM | 10.7 nM | 25.6 nM | 0.11 nM | 150 nM |  |
| 9360 nM | > 10000 nM | > 10000 nM | 3990 nM | > 10000 nM | Clc1ccc(Nc2nnc(Cc3ccncc3)c3ccccc23)cc1 [Vatalanib] | 3840 nM | 4870 nM | 23.9 nM | 6860 nM | > 10000 nM | 32.8 nM | 6650 nM | 4530 nM |  |
| > 10000 nM | 7350 nM | 9400 nM | 3910 nM | > 10000 nM | CC1(C)CNc2cc(NC(=O)c3cccnc3NCc3ccncc3)ccc21 [Motesanib] | 455 nM | 2550 nM | 515 nM | > 10000 nM | 942 nM | 8730 nM | > 10000 nM | 9170 nM |  |
| > 10000 nM | 3820 nM | > 10000 nM | > 10000 nM | 913 nM | Cc1ccc(Nc2nccc(N(C)c3ccc4c(C)n(C)nc4c3)n2)cc1S(N)(=O)=O [Pazopanib] | 35.4 nM | 8400 nM | 135 nM | 4120 nM | > 10000 nM | 2410 nM | 5020 nM | > 10000 nM |  |
| 1270 nM | 2650 nM | 4980 nM | 6220 nM | 8920 nM | C[C@H]1Oc2cc(cnc2N)-c2c(nn(C)c2C#N)CN(C)C(=O)c2ccc(F)cc21 [Lorlatinib] | 5400 nM | 554 nM | 1320 nM | 3210 nM | 3240 nM | 999 nM | 207 nM | 1070 nM |  |
| 3610 nM | 3700 nM | > 10000 nM | > 10000 nM | 3790 nM | Cc1cn(-c2cc(NC(=O)c3ccc(C)c(Nc4nccc(-c5cccnc5)n4)c3)cc(C(F)(F)F)c2)cn1 [Nilotinib] | 5190 nM | > 10000 nM | 22.2 nM | > 10000 nM | 186 nM | > 10000 nM | > 10000 nM | > 10000 nM |  |
| 5220 nM | 207 nM | 0.56 nM | > 10000 nM | 1060 nM | COCCNc1cc(NC(=O)N2CCCc3cc(CN4CCN(C)CC4=O)c(C=O)nc32)ncc1C#N [Roblitinib] | > 10000 nM | 4040 nM | 60.7 nM | 150 nM | 7.75 nM | 0.09 nM | 7290 nM | 25.8 nM |  |

The next lines start with the compound.

| SMILES | EC50 [3, 16] | EC50 [5, 18] | EC50 [7, 19] | EC50 [8, 20] | EC50 [13, 22] | EC50 [1, 14] | EC50 [2, 15] | EC50 [4, 17] | EC50 ([6]; read-out: EC50 [nM]) | EC50 ([9]; read-out: EC50 [nM]) | EC50 ([10]; HPDE, read-out: EC50 [nM]) | EC50 ([11]; read-out: EC50 [nM]) | EC50 [12, 21] | other results |
| --- | --- | --- | --- | --- | --- | --- | --- | --- | --- | --- | --- | --- | --- | --- |
| N#CC1(c2ccc(NC(=O)c3cccnc3NCc3ccncc3)cc2)CCCC1 [Apatinib] | 5230 nM | > 10000 nM | 452 nM | 4280 nM | 2350 nM | > 10000 nM | > 10000 nM | 283 nM | 5380 nM | 1420 nM | 7430 nM | > 10000 nM | > 10000 nM |  |
| CO[C@H]1C[C@@H]2CC[C@@H](C)[C@@](O)(O2)C(=O)C(=O)N2CCCC[C@H]2C(=O)O[C@H]([C@H](C)C[C@@H]2CC[C@@H](OCCO)[C@H](OC)C2)CC(=O)[C@H](C)/C=C(\C)[C@@H](O)[C@@H](OC)C(=O)[C@H](C)C[C@H](C)/C=C/C=C/C=C/1C [Certican] | 0.09 nM | 1.84 nM | 0.14 nM | 238 nM | 171 nM | 0.1 nM | 0.05 nM | 2.46 nM | 0.21 nM | 2610 nM | 0.16 nM | 5.43 nM | 3520 nM |  |
| CCCS(=O)(=O)N[C@H]1C[C@@H](N(C)c2ncnc3[nH]ccc23)C1 [Abrocitinib] | 275 nM | 2760 nM | 3850 nM | 9870 nM | 140 nM | 3800 nM | > 10000 nM | 643 nM | > 10000 nM | 901 nM | 5620 nM | 2.68 nM | 37.4 nM |  |
| CC[C@@H]1CN(C(=O)NCC(F)(F)F)C[C@@H]1c1cnc2cnc3[nH]ccc3n12 [Upadacitinib] | 704 nM | 1590 nM | 137 nM | 1.06 nM | 215 nM | > 10000 nM | 7050 nM | 973 nM | 309 nM | 6.77 nM | 26.9 nM | 49 nM | 0.18 nM |  |
| Cn1cc(-c2cc3c(N4CCN(c5ncc([C@@](C)(N)c6ccc(F)cc6)cn5)CC4)ncnn3c2)cn1 [Avapritinib] | 3240 nM | 1710 nM | 1990 nM | 420 nM | 2600 nM | 1570 nM | 1010 nM | 701 nM | 3820 nM | 3550 nM | 976 nM | 2070 nM | 3830 nM |  |
| O=c1sn(-c2cccc3ccccc23)c(=O)n1Cc1ccccc1 [Tideglusib] | 2600 nM | 344 nM | 66.8 nM | 24.5 nM | > 10000 nM | 636 nM | 0.13 nM | 4540 nM | 1490 nM | 9730 nM | 58 nM | 2070 nM | 51.8 nM |  |
| O=C(Nc1cnn2ccc(N3CCC[C@@H]3c3cc(F)ccc3F)nc12)N1CC[C@H](O)C1 [Larotrectinib] |  |  |  |  |  |  |  |  |  |  |  |  |  | EC50 ([1]; read-out: EC50): 678 nM; EC50 ([2]; 72 h, read-out: EC50): 270 nM; EC50 ([3]; 72 h, read-out: EC50): 357 nM; EC50 ([4]; 72 h, read-out: EC50): 148 nM; EC50 ([5]; 72 h, read-out: EC50): 53.6 nM; EC50 ([6]; read-out: EC50): 451 nM; EC50 ([7]; 72 h, read-out: EC50): 53.5 nM; EC50 ([8]; 72 h, read-out: EC50): 34.9 nM; EC50 ([9]; read-out: EC50): 196 nM; EC50 ([10]; read-out: EC50): 459 nM; EC50 ([11]; read-out: EC50): 842 nM; EC50 ([12]; 72 h, read-out: EC50): 3880 nM; EC50 ([13]; 72 h, read-out: EC50): 211 nM |
| O=S(=O)(c1cccc2cnccc12)N1CCCNCC1 [Fasudil] | 805 nM | 3390 nM | 2.85 nM | 6850 nM | 5330 nM | 1140 nM | 0.04 nM | 609 nM | 2960 nM | 2790 nM | > 10000 nM | > 10000 nM | > 10000 nM |  |

From article PMC11876601 (Molecular Systems Biology, 2025)
